Results published in BigSolDB 2.1.

Nc1cc(Cl)ccc1C(=O)O
Conditions	solubility (mole fraction)
in 1,4-dioxane, 283.15 K	0.0158
in 1,4-dioxane, 285.65 K	0.0173
in 1,4-dioxane, 288.15 K	0.0191
in 1,4-dioxane, 290.65 K	0.0209
in 1,4-dioxane, 293.15 K	0.0228
in 1,4-dioxane, 295.65 K	0.0248
in 1,4-dioxane, 298.15 K	0.0271
in 1,4-dioxane, 300.65 K	0.0295
in 1,4-dioxane, 303.15 K	0.032
in 1,4-dioxane, 305.65 K	0.0348
in 1,4-dioxane, 308.15 K	0.0375
in 1,4-dioxane, 310.65 K	0.0405
in 1,4-dioxane, 313.15 K	0.0436
in NMP, 278.15 K	0.0323
in NMP, 280.65 K	0.0338
in NMP, 283.15 K	0.0354
in NMP, 285.65 K	0.037
in NMP, 288.15 K	0.0388
in NMP, 290.65 K	0.0406
in NMP, 293.15 K	0.0425
in NMP, 295.65 K	0.0445
in NMP, 298.15 K	0.0465
in NMP, 300.65 K	0.0487
in NMP, 305.65 K	0.0531
in NMP, 308.15 K	0.0556
in NMP, 310.65 K	0.0581
in NMP, 313.15 K	0.0607
in acetone, 278.15 K	0.0159
in acetone, 280.65 K	0.0174
in acetone, 283.15 K	0.0189
in acetone, 285.65 K	0.0207
in acetone, 288.15 K	0.0226
in acetone, 290.65 K	0.0243
in acetone, 293.15 K	0.0261
in acetone, 295.65 K	0.0283
in acetone, 298.15 K	0.0307
in acetone, 300.65 K	0.0328
in acetone, 303.15 K	0.0351
in acetone, 305.65 K	0.0378
in acetone, 308.15 K	0.0404
in acetone, 310.65 K	0.0433
in acetone, 313.15 K	0.0463
in acetonitrile, 278.15 K	0.00138
in acetonitrile, 280.65 K	0.00154
in acetonitrile, 283.15 K	0.00169
in acetonitrile, 285.65 K	0.00188
in acetonitrile, 288.15 K	0.00208
in acetonitrile, 290.65 K	0.00229
in acetonitrile, 293.15 K	0.00252
in acetonitrile, 295.65 K	0.00277
in acetonitrile, 298.15 K	0.00303
in acetonitrile, 300.65 K	0.00332
in acetonitrile, 303.15 K	0.00362
in acetonitrile, 305.65 K	0.00395
in acetonitrile, 308.15 K	0.00431
in acetonitrile, 310.65 K	0.00468
in acetonitrile, 313.15 K	0.0051
in ethanol, 278.15 K	0.00994
in ethanol, 280.65 K	0.0109
in ethanol, 283.15 K	0.0118
in ethanol, 285.65 K	0.0129
in ethanol, 288.15 K	0.014
in ethanol, 290.65 K	0.0151
in ethanol, 293.15 K	0.0164
in ethanol, 295.65 K	0.0177
in ethanol, 298.15 K	0.0191
in ethanol, 300.65 K	0.0205
in ethanol, 303.15 K	0.0221
in ethanol, 305.65 K	0.0238
in ethanol, 308.15 K	0.0255
in ethanol, 310.65 K	0.0273
in ethanol, 313.15 K	0.0293
in ethyl acetate, 278.15 K	0.0125
in ethyl acetate, 280.65 K	0.0136
in ethyl acetate, 283.15 K	0.0149
in ethyl acetate, 285.65 K	0.0161
in ethyl acetate, 288.15 K	0.0176
in ethyl acetate, 290.65 K	0.0191
in ethyl acetate, 293.15 K	0.0206
in ethyl acetate, 295.65 K	0.0222
in ethyl acetate, 298.15 K	0.0241
in ethyl acetate, 300.65 K	0.0259
in ethyl acetate, 303.15 K	0.0278
in ethyl acetate, 308.15 K	0.0321
in ethyl acetate, 310.65 K	0.0343
in ethyl acetate, 313.15 K	0.0368
in ethylbenzene, 278.15 K	0.00011
in ethylbenzene, 280.65 K	0.00013
in ethylbenzene, 283.15 K	0.000149
in ethylbenzene, 285.65 K	0.000172
in ethylbenzene, 288.15 K	0.000196
in ethylbenzene, 290.65 K	0.000224
in ethylbenzene, 293.15 K	0.000255
in ethylbenzene, 295.65 K	0.00029
in ethylbenzene, 298.15 K	0.000326
in ethylbenzene, 300.65 K	0.000371
in ethylbenzene, 303.15 K	0.000418
in ethylbenzene, 305.65 K	0.000472
in ethylbenzene, 308.15 K	0.000528
in ethylbenzene, 310.65 K	0.000594
in ethylbenzene, 313.15 K	0.000664
in isopropanol, 278.15 K	0.00925
in isopropanol, 280.65 K	0.0101
in isopropanol, 283.15 K	0.0111
in isopropanol, 285.65 K	0.012
in isopropanol, 288.15 K	0.0131
in isopropanol, 290.65 K	0.0143
in isopropanol, 293.15 K	0.0155
in isopropanol, 295.65 K	0.0167
in isopropanol, 298.15 K	0.0181
in isopropanol, 300.65 K	0.0195
in isopropanol, 303.15 K	0.0211
in isopropanol, 305.65 K	0.0227
in isopropanol, 308.15 K	0.0244
in isopropanol, 310.65 K	0.0262
in isopropanol, 313.15 K	0.0282
in n-butanol, 278.15 K	0.00768
in n-butanol, 280.65 K	0.0084
in n-butanol, 283.15 K	0.00925
in n-butanol, 285.65 K	0.0102
in n-butanol, 288.15 K	0.0111
in n-butanol, 290.65 K	0.0121
in n-butanol, 293.15 K	0.0132
in n-butanol, 295.65 K	0.0144
in n-butanol, 298.15 K	0.0157
in n-butanol, 300.65 K	0.017
in n-butanol, 303.15 K	0.0184
in n-butanol, 305.65 K	0.0199
in n-butanol, 308.15 K	0.0215
in n-butanol, 310.65 K	0.0232
in n-butanol, 313.15 K	0.025
in n-propanol, 278.15 K	0.00869
in n-propanol, 280.65 K	0.0095
in n-propanol, 283.15 K	0.0103
in n-propanol, 285.65 K	0.0113
in n-propanol, 288.15 K	0.0123
in n-propanol, 290.65 K	0.0134
in n-propanol, 293.15 K	0.0144
in n-propanol, 295.65 K	0.0157
in n-propanol, 298.15 K	0.017
in n-propanol, 300.65 K	0.0184
in n-propanol, 303.15 K	0.0198
in n-propanol, 305.65 K	0.0214
in n-propanol, 308.15 K	0.023
in n-propanol, 310.65 K	0.0248
in n-propanol, 313.15 K	0.0266
in toluene, 278.15 K	0.000136
in toluene, 280.65 K	0.000157
in toluene, 283.15 K	0.00018
in toluene, 285.65 K	0.000204
in toluene, 288.15 K	0.000233
in toluene, 290.65 K	0.000266
in toluene, 293.15 K	0.000299
in toluene, 295.65 K	0.000339
in toluene, 298.15 K	0.000384
in toluene, 300.65 K	0.000427
in toluene, 303.15 K	0.000478
in toluene, 305.65 K	0.000533
in toluene, 308.15 K	0.000597
in toluene, 310.65 K	0.000668
in toluene, 313.15 K	0.000742
